Where “and” joins values, the source holds several entries; their conditions need not be identical. Equal entries are not always repeated. Where two headings read alike, the source gives them in different places.
Key:
Assay in all cases: qHTS cell viability (CellTiter-Glo, 72 h; primary and follow-up small molecule screen)
Type in all cases: cell-based, human
UISO cells (VN-MCC) = test system: UISO cells (VN-MCC)
MKL-1 cells (VP-MCC) = test system: MKL-1 cells (VP-MCC)
MCC26 cells (VN-MCC) = test system: MCC26 cells (VN-MCC)
WAGA cells (VP-MCC) = test system: WAGA cells (VP-MCC)
MCC13 cells (VN-MCC) = test system: MCC13 cells (VN-MCC)
MKL-2 cells (VP-MCC) = test system: MKL-2 cells (VP-MCC)
[1] = follow-up screen, UISO, replicate 1
[2] = follow-up screen, UISO, replicate 2
[3] = follow-up screen, UISO, replicate 3
[4] = follow-up screen, MKL-1, replicate 1
[5] = follow-up screen, MKL-1, replicate 2
[6] = follow-up screen, MKL-1, replicate 3
[7] = follow-up screen, MCC26, replicate 1
[8] = follow-up screen, MCC26, replicate 2
[9] = follow-up screen, MCC26, replicate 3
[10] = follow-up screen, WAGA, replicate 1
[11] = follow-up screen, WAGA, replicate 2
[12] = follow-up screen, WAGA, replicate 3
[13] = follow-up screen, MCC13, replicate 1
[14] = follow-up screen, MCC13, replicate 2
[15] = follow-up screen, MCC13, replicate 3
[16] = follow-up screen, MKL-2, replicate 1
[17] = follow-up screen, MKL-2, replicate 2
[18] = follow-up screen, MKL-2, replicate 3

| Structure (SMILES) | Area under the dose-response curve (AUC) (UISO cells (VN-MCC)) | Area under the dose-response curve (AUC) (MKL-1 cells (VP-MCC)) | Area under the dose-response curve (AUC) (MCC26 cells (VN-MCC)) | Area under the dose-response curve (AUC) (WAGA cells (VP-MCC)) | Area under the dose-response curve (AUC) (MCC13 cells (VN-MCC)) | Area under the dose-response curve (AUC) (MKL-2 cells (VP-MCC)) | Area under the dose-response curve (AUC) UISO Replicate 1 (UISO cells (VN-MCC); [1]) | Area under the dose-response curve (AUC) UISO Replicate 2 (UISO cells (VN-MCC); [2]) | Area under the dose-response curve (AUC) UISO Replicate 3 (UISO cells (VN-MCC); [3]) | Area under the dose-response curve (AUC) MKL-1 Replicate 1 (MKL-1 cells (VP-MCC); [4]) | Area under the dose-response curve (AUC) MKL-1 Replicate 2 (MKL-1 cells (VP-MCC); [5]) | Area under the dose-response curve (AUC) MKL-1 Replicate 3 (MKL-1 cells (VP-MCC); [6]) | Area under the dose-response curve (AUC) MCC26 Replicate 1 (MCC26 cells (VN-MCC); [7]) | Area under the dose-response curve (AUC) MCC26 Replicate 2 (MCC26 cells (VN-MCC); [8]) | Area under the dose-response curve (AUC) MCC26 Replicate 3 (MCC26 cells (VN-MCC); [9]) | Area under the dose-response curve (AUC) WAGA Replicate 1 (WAGA cells (VP-MCC); [10]) | Area under the dose-response curve (AUC) WAGA Replicate 2 (WAGA cells (VP-MCC); [11]) | Area under the dose-response curve (AUC) WAGA Replicate 3 (WAGA cells (VP-MCC); [12]) | Area under the dose-response curve (AUC) MCC13 Replicate 1 (MCC13 cells (VN-MCC); [13]) | Area under the dose-response curve (AUC) MCC13 Replicate 2 (MCC13 cells (VN-MCC); [14]) | further results |
| --- | --- | --- | --- | --- | --- | --- | --- | --- | --- | --- | --- | --- | --- | --- | --- | --- | --- | --- | --- | --- | --- |
| O=C(O)CC(C(=O)O)n1c(O)c(C2=c3cc(Br)ccc3=NC2=O)sc1=S (stereo not drawn) [BCL6 Inhibitor] | 463.7 and 453.9 and 421.4 | 525.6 and 554.1 and 496.0 | 463.9 and 441.3 and 491.7 | 531.4 and 497.2 and 476.9 | 512.5 and 484.7 and 473.4 | 493.8 and 494.8 and 466.7 |  |  |  |  |  |  |  |  |  |  |  |  |  |  |  |
| COc1cccc2c1C(=O)c1c(O)c3c(c(O)c1C2=O)C[C@@](O)(C(C)=O)C[C@@H]3O[C@H]1C[C@H](N)[C@H](O)[C@H](C)O1 [Daunorubicin] |  |  |  |  |  |  |  |  |  |  |  |  |  |  |  |  |  |  |  |  | Area under the dose-response curve (AUC) UISO Replicate 1 (UISO cells (VN-MCC)): 226.5; Area under the dose-response curve (AUC) UISO Replicate 2 (UISO cells (VN-MCC)): 238.3; Area under the dose-response curve (AUC) UISO Replicate 3 (UISO cells (VN-MCC)): 225.1; Area under the dose-response curve (AUC) MKL-1 Replicate 1 (MKL-1 cells (VP-MCC)): 228.6; Area under the dose-response curve (AUC) MKL-1 Replicate 2 (MKL-1 cells (VP-MCC)): 217.7; Area under the dose-response curve (AUC) MKL-1 Replicate 3 (MKL-1 cells (VP-MCC)): 240.0; Area under the dose-response curve (AUC) MCC26 Replicate 1 (MCC26 cells (VN-MCC)): 309.1; Area under the dose-response curve (AUC) MCC26 Replicate 2 (MCC26 cells (VN-MCC)): 298.6; Area under the dose-response curve (AUC) MCC26 Replicate 3 (MCC26 cells (VN-MCC)): 273.9; Area under the dose-response curve (AUC) WAGA Replicate 1 (WAGA cells (VP-MCC)): 254.8; Area under the dose-response curve (AUC) WAGA Replicate 2 (WAGA cells (VP-MCC)): 263.7; Area under the dose-response curve (AUC) WAGA Replicate 3 (WAGA cells (VP-MCC)): 266.2; Area under the dose-response curve (AUC) MCC13 Replicate 1 (MCC13 cells (VN-MCC)): 326.2; Area under the dose-response curve (AUC) MCC13 Replicate 2 (MCC13 cells (VN-MCC)): 316.0; Area under the dose-response curve (AUC) MCC13 Replicate 3 (MCC13 cells (VN-MCC)): 313.0; Area under the dose-response curve (AUC) MKL-2 Replicate 1 (MKL-2 cells (VP-MCC)): 202.9; Area under the dose-response curve (AUC) MKL-2 Replicate 2 (MKL-2 cells (VP-MCC)): 215.3; Area under the dose-response curve (AUC) MKL-2 Replicate 3 (MKL-2 cells (VP-MCC)): 253.2 |
| CC(C)=CCC[C@]1(C)C=Cc2c(O)c3c(c(CC=C(C)C)c2O1)O[C@]12C(=C[C@@H]4C[C@H]1C(C)(C)O[C@@]2(C/C=C(/C)C(=O)O)C4=O)C3=O [GAMBOGIC ACID] |  |  |  |  |  |  | 286.6 | 299.4 | 341.5 | 308.8 | 334.5 | 328.9 | 329.0 | 325.1 | 343.3 | 304.1 | 265.2 | 369.1 | 387.5 | 370.7 | Area under the dose-response curve (AUC) MCC13 Replicate 3 (MCC13 cells (VN-MCC); [15]): 367.8; Area under the dose-response curve (AUC) MKL-2 Replicate 1 (MKL-2 cells (VP-MCC); [16]): 279.3; Area under the dose-response curve (AUC) MKL-2 Replicate 2 (MKL-2 cells (VP-MCC); [17]): 285.4; Area under the dose-response curve (AUC) MKL-2 Replicate 3 (MKL-2 cells (VP-MCC); [18]): 317.0 |
| Nc1ncnc2c1ncn2[C@@H]1O[C@H](CO)[C@@H](O)[C@H]1O [Adenosine] |  |  |  |  |  |  | 514.9 | 502.8 | 486.4 | 523.5 | 521.0 | 519.8 | 484.4 | 450.7 | 501.0 | 557.9 | 476.1 | 490.2 | 550.6 | 498.0 | Area under the dose-response curve (AUC) MCC13 Replicate 3 (MCC13 cells (VN-MCC); [15]): 487.2; Area under the dose-response curve (AUC) MKL-2 Replicate 1 (MKL-2 cells (VP-MCC); [16]): 483.1; Area under the dose-response curve (AUC) MKL-2 Replicate 2 (MKL-2 cells (VP-MCC); [17]): 500.4; Area under the dose-response curve (AUC) MKL-2 Replicate 3 (MKL-2 cells (VP-MCC); [18]): 489.0 |
| Oc1ccc(C2=Cc3ccc(O)cc3OC2)cc1 [Idronoxil] | 422.5 and 447.1 and 401.0 | 285.6 and 303.3 and 334.8 | 408.0 and 413.9 and 448.0 | 395.2 and 366.0 and 386.6 | 415.6 and 455.9 and 456.9 | 351.5 and 302.3 and 331.4 |  |  |  |  |  |  |  |  |  |  |  |  |  |  |  |

From publication PMC11822212, “High-throughput screening identifies Aurora kinase B as a critical therapeutic target for Merkel cell carcinoma” (Nature Communications, 2025)
